Data taken from patent US20220235343A1, “NOVEL ADP-RIBOSYL CYCLASE AND INHIBITOR THEREOF” (INDUSTRIAL COOPERATION FOUNDATION CHONBUK NATIONAL …, priority 2019, published 2022).

Columns and labels:
[1] = target: T1, new ADP-ribosyl cyclase (ADPRC) of SEQ ID NO 1 (Mus musculus, UniProt P14094); experiment: Inhibition of NAD glycohydrolase (NADase) activity of new ADPRC; assay type: biochemical; details: as compared to the control group; ε-NAD substrate, 37° C. 1 hour; inhibitor concentration not given; FIG. 5
T1 construct: FLAG (N); made in house; host or cells: HEK293 cells or MES13 cells (transient transfection)
Experimental: In order to investigate the ADP-ribosyl cyclase (ADPRC) activity of SEQ ID NO 1, a FLAG-ADPRC plasmid was prepared by ligating a cDNA sequence encoding ADPRC into a FLAG-CMV-2 vector and the overexpression of new ADPRC was induced by treating HEK293 cells or MES13 cells using a transfection reagent. The overexpressed new ADPRC was lysed with a lysis buffer. 45 μL of the lysed sample was treated with 5 μL of 2 mM ε-NAD (nicotinamide 1,N6-ethenoadenine dinucleotide) and incubated at 37° C. for 1 hour. Then, the enzyme-substrate reaction was stopped by treating with 50 μL of 10% trichloroacetic acid. After centrifuging for 10 minutes and adding 80 μL of the supernatant to 720 μL of 0.1 M sodium phosphate buffer, absorbance was measured at 297 nm (excitation) and 410 nm (emission) with a fluorescence spectrometer.
In order to find an inhibitor which inhibits the activation of new ADP-ribosyl cyclase (ADPRC) of SEQ ID NO 1, 5 μL of each of 4,4′-dihydroxyazobenzene (4-DHAB, TCI (Japan)), 2,2′-dihydroxyazobenzene (2-DAB, Sigma-Aldrich (USA)), 2-(3,4-dihydroxyphenyl)-3,5,7-trihydroxychromen-4-one (Quercetin, Sigma-Aldrich (USA)) and San4825 (synthesized by Kannt A et al. [Kannt A, Sicka K, Kroll K, Kadereit D, Gogelein H. Naunyn. Schmiedebergs. Arch. Pharmacol. 385: 717-727, 2012], China) and 2-(1,3-benzoxazol-2-ylamino)-1-methylquinazoline-4(1H)-one (2-BMQ) and 1,4-dicaffeoylquinic acid (1,4-DCQA, Biopurify (China), hereinafter DCQA), which were newly found through screening, was reacted with 40 μL of new ADPRC in iced water for 15 minutes. Then, reaction was conducted at 37° C. for 1 hour after treating with 5 μL of 2 mM ε-NAD (nicotinamide 1,N6-ethenoadenine dinucleotide). Then, the enzyme-substrate reaction was stopped by treating with 50 μL of 10% trichloroacetic acid. After centrifuging for 10 minutes and adding 80 μL of the supernatant to 720 μL of 0.1 M sodium phosphate buffer, absorbance was measured at 297 nm (excitation) and 410 nm (emission) using a fluorescence spectrometer.

[2] = tested on: TGF-β1, fibronectin and collagen IV in kidney tissue; experiment: Expression of TGF-β1, fibronectin and collagen IV in kidney tissue of renal disease mouse model (immunofluorescence); assay type: in vivo; details: STZ mice, DCQA i.p. every day for 6 weeks, FIG. 8
Experimental: The change in the expression of TGF-β1, fibronectin and collagen IV in the kidney tissue of a renal disease mouse model was measured by the method reported by Kim S Y et al. [Kim S Y, Park K H, Gul R, Jang K Y, Kim U H. Am. J. Physiol. Renal Physiol. 296: F291-F297, 2009].
Specifically, 0.2 mL of 50 mM citrate buffer (pH 4.8) (control group and DCQA group) or 200 μL of 5 mg/mL streptozotocin (STZ, Sigma-Aldrich (USA)) dissolved in 50 mM citrate buffer (STZ group and STZ+DCQA group) was intraperitoneally injected to C57BL/6J mice. Blood glucose was measured from day 2 after the STZ injection and the mice whose blood glucose level was 300 mg/dL were divided into an STZ group and an STZ+DCQA group. […] In order to investigate the possibility as a therapeutic agent for a renal disease, the mouse was sacrificed and serum and kidney were taken. Some of the extracted kidney was fixed in 10% formalin. The kidney tissue fixed in 10% formalin was cut into kidney tissue sections on a slide glass using a cryostat microtome. The kidney tissue sections were washed with a TTBS (Tris-buffered saline (TBS) with 0.1% Tween 20) buffer and then incubated with a TTBS buffer containing 1% bovine serum albumin (BSA) for 1 hour. The tissues were reacted with primary antibodies (TGF-β1 (Santa Cruz, USA), fibronectin (Santa Cruz, USA) and collagen IV (Abcam, UK)) diluted in a TTBS buffer containing 1% bovine serum albumin (BSA) to 1:200 at 4° C. for 12 hours or longer. After washing the tissues that reacted with the primary antibodies 3 times with a TTBS buffer, they were reacted with FITC-labeled secondary antibodies diluted in a TTBS buffer to 1:200 in the dark at room temperature for 1 hour. Then, after washing 3 times with a TTBS buffer, a cover glass was attached using a mounting solution. The stained kidney tissue was observed using a fluorescence microscope (Carl Zeiss, Germany) for observing green fluorescence.

[3] = tested on: kidney tissue of diabetic renal disease mouse model; experiment: Histopathological change in kidney tissue of renal disease mouse model (H&E staining); assay type: in vivo; details: STZ mice, DCQA i.p. every day for 6 weeks, FIG. 9
Experimental: The histopathological change in the kidney tissue of a renal disease mouse model was measured by the method reported by Shu B et al. [Shu B, Feng Y, Gui Y, Lu Q, Wei W, Xue X, Sun X, He W, Yang J, Dai C. Cell. Signal. 42:249-258, 2018]
Specifically, 0.2 mL of 50 mM citrate buffer (pH 4.8) (control group and DCQA group) or 200 μL of 5 mg/mL streptozotocin (STZ, Sigma-Aldrich (USA)) dissolved in 50 mM citrate buffer (STZ group and STZ+DCQA group) was intraperitoneally injected to C57BL/6J mice. Blood glucose was measured from day 2 after the STZ injection and the mice whose blood glucose level was 300 mg/dL were divided into an STZ group and an STZ+DCQA group. […] In order to investigate the possibility as a therapeutic agent for a renal disease, the mouse was sacrificed and serum and kidney were taken. Some of the extracted kidney was fixed in 10% formalin. The kidney tissue fixed in 10% formalin was cut into kidney tissue sections on a slide glass using a cryostat microtome. The kidney tissue sections were washed with running water for 5 minutes and then stained with hematoxylin for 5 minutes. After the staining, the tissue was washed with running water for 5 minutes. Then, the tissue was immersed in 157 mM hydrochloric acid 2 times and taken out quickly. Then, the tissue was immersed once in 0.25% ammonia water and taken out quickly. After washing again with running water for 5 minutes and staining with eosin for about 30 seconds, the tissue was reacted with 70% ethanol for 30 seconds, with 80% ethanol for 30 seconds, with 90% ethanol for 30 seconds, with 100% ethanol for 30 seconds, again with 100% ethanol for 30 seconds, and then again with 100% ethanol for 30 seconds. Finally, after reacting with xylene for 5 minutes and again with xylene for 5 minutes or longer, a cover glass was attached using a mounting solution.

O=C(/C=C/c1ccc(O)c(O)c1)OC1[C@H](O)CC(OC(=O)/C=C/c2ccc(O)c(O)c2)(C(=O)O)C[C@H]1O (stereo partly shown) [DCQA, 1,4-dicaffeoylquinic acid]
NAD glycohydrolase (NADase) activity inhibited [1]: 79.64%
expression level of TGF-β1 increased by STZ, decreased by DCQA [2]: to the level of the control group
expression level of collagen IV increased by STZ, decreased by DCQA [2]: to the level of the control group
expression level of fibronectin increased by STZ, decreased by DCQA [2]: to the level of the control group
formation of transitional epithelial cells increased by STZ, recovered by DCQA [3]: to a level similar to that of the control group
glomerulus hypertrophy increased by STZ, recovered by DCQA [3]: to a level similar to that of the control group
infiltration of inflammatory cells increased by STZ, recovered by DCQA [3]: to a level similar to that of the control group
